Test results published in patent publication US9957257B2, “Amide compounds as 5-HT4 receptor agonists” (SUVEN LIFE SCIENCES LIMITED, priority 2015, dated 2018).

Assays:
[1] = Rodent pharmacokinetic study; assay type: in vivo, Male wistar rats; conditions: male, Wistar, plasma, rat
Procedure: Male wistar rats (225±25 grams) were used as experimental animals. Three to five animals were housed in each cage. Two days prior to dosing day, male wistar rats (225-250 grams) were anesthetized with isoflurane for surgical placement of jugular vein catheter. Animals were fasted overnight before oral dosing (p.o) and food pellets were allowed 2 hours post dosing, whereas during intravenous dosing food and water were provided as ad libitum. Three rats were dosed with test compounds (3 mg/kg) orally and intravenously (1 mg/kg).
At each time point blood was collected through jugular vein and immediately replenish with an equivalent volume of normal saline from freely moving rats. Collected blood was transferred into a labeled eppendr off containing 10 μL of heparin as anticoagulant. Typically blood samples were collected as following time points: Pre dose, 0.08 (only i.v.), 0.25, 0.5, 1, 2, 4, 6, 8, and 24 hours post dose-(n=3). Blood was centrifuged at 4000 rpm for 10 minutes. Plasma was prepared and stored frozen at −20° C. until analysis. The concentrations of the test compounds were quantified in plasma by qualified LC-MS/MS method using suitable extraction technique. The test compounds were quantified in the calibration range around 2-2000 ng/mL in plasma. Study samples were analyzed using calibration samples in the batch and quality control samples spread across the batch.
Pharmacokinetic parameters Cmax, Tmax, AUCt, T1/2 and Bioavailability were calculated by non-compartmental model using standard non-compartmental model by using WinNonLin 5.0.1 or Phoenix WinNonlin 6.2 version Software package.

[2] = Rodent brain penetration study; assay type: in vivo, Male Wistar rats; conditions: male, Wistar, rat, 3 mg/kg, oral (gavage), read-out: Single dose Brain Penetration (Cb/Cp)
Procedure: Male Wistar rats (225±25 grams) were used as experimental animals. Three animals were housed in each cage. Animals were given water and food ad libitum throughout the experiment and maintained on a 12 hours light/dark cycle. Brain penetration was determined in discrete manner in rats. One day prior to dosing day, male wistar rats (225-250 grams) were acclimatized. After acclimatization the rats were grouped according to their weight. In each group, 3 animals were kept in individual cage and allowed free access to food and water. At each time point (0.50, 1 and 2 hours) n=3 animals were used. The test compounds were suitably preformulated and administered orally at (free base equivalent) 3 mg/kg. Blood samples were removed via, cardiac puncture by using isoflurane anesthesia. The animals were sacrificed to collect brain tissue. Plasma was separated and brain samples were homogenized and stored frozen at −20° C. until analysis. The concentrations of the test compounds in plasma and brain were determined using LC-MS/MS method. The test compounds were quantified in plasma and brain homogenate by qualified LC-MS/MS method using suitable extraction technique. The test compounds were quantified in the calibration range of 1-500 ng/mL in plasma and brain homogenate. Study samples were analyzed using calibration samples in the batch and quality control samples spread across the batch. Extent of brain-plasma ratio was calculated (Cb/Cp).

[3] = Object recognition task model; assay type: in vivo, Male Wistar rats; conditions: 0.003 mg/kg, p.o.
Procedure: The cognition enhancing properties of compounds of this invention were estimated by using this model.
Male Wistar rats (230-280 grams) were used as experimental animals. Four animals were housed in each cage. Animals were kept on 20% food deprivation before one day and given water ad libitum throughout the experiment and maintained on a 12 hours light/dark cycle. Also the rats were habituated to individual arenas for 1 hour in the absence of any objects.
One group of 12 rats received vehicle (1 mL/Kg) orally and another set of animals received compound of the formula (I) either orally or i.p., before one hour of the familiar (T1) and choice trial (T2).
The experiment was carried out in a 50×50×50 cm open field made up of acrylic. In the familiarization phase, (T1), the rats were placed individually in the open field for 3 minutes, in which two identical objects (plastic bottles, 12.5 cm height×5.5 cm diameter) covered in yellow masking tape alone (a1 and a2) were positioned in two adjacent corners, 10 cms from the walls. After 24 hours of the (T1) trial for long-term memory test, the same rats were placed in the same arena as they were placed in T1 trial. Choice phase (T2) rats were allowed to explore the open field for 3 minutes in presence of one familiar object (a3) and one novel object (b) (Amber color glass bottle, 12 cm high and 5 cm in diameter). Familiar objects presented similar textures, colors and sizes. During the T1 and T2 trial, explorations of each object (defined as sniffing, licking, chewing or having moving vibrissae whilst directing the nose towards the object at a distance of less than 1 cm) were recorded separately by stopwatch. Sitting on an object was not regarded as exploratory activity, however, it was rarely observed.
T1 is the total time spent exploring the familiar objects (a1+a2).
T2 is the total time spent exploring the familiar object and novel object (a3+b).
The object recognition test was performed as described by Behaviour Brain Research, 31 (1988), 47-59.

Radial arm maze = assay type: in vivo, rats; conditions: p.o.
Description: The cognition enhancing properties of test compounds of this invention were estimated by using this model.
Radial arm maze consists of a central hub of 45 cm diameter. Each arm was of dimension 42.5×15×24 cm. The maze was elevated to a height of 1 m above the ground. The animals were placed on a restricted diet until they reached approximately 85% of their free feeding weight. During this diet restriction period animals were habituated to the novel feed (pellets). Once the rats reached approximately 85% of their free feeding weight, rats were habituated to the maze on the 1st and 2nd day. […] Animals were randomized on day 2. On the subsequent days the treatment was given as per the allotment. Each animal was introduced into the maze individually for a period of 10 minutes. The arms were baited only once and the animal had to learn the rule that repeated arm entries would not be rewarded. The trial ended once the rat had visited 16 arms or 10 minutes were over or all the pellets were eaten. The arm entries were recorded using the software. Once the trial was over the rat was removed and the maze was cleaned using soap water.

Question: For `Nc1c(Cl)cc(C(=O)NCC2C3CN(CC4CCOCC4)CC23)c2c1CCCO2.O=C(O)C(O)C(O)C(=O)O` (stereo not drawn) [Example 3, 5-Amino-6-chloro-N-{[3-(tetrahydro-2H-pyran-4-ylmethyl)-3-azabicyclo[3.1.0]hex-6-yl]methyl}chroman-8-carboxamide L(+)-tartarate], which AUC(0-t) ([1]; 1 mg/kg, intravenous (bolus)) is on record?
Answer: 158 ± 7 ng·h/mL

Question: What about the half-life ([1]; 1 mg/kg, intravenous (bolus)) of the same compound?
Answer: 1.9 h

Question: And the bioavailability ([1]; 3 mg/kg oral vs 1 mg/kg intravenous)?
Answer: 68 ± 22%

Question: What about the AUC(0-t) ([1]; 3 mg/kg, oral (gavage)) of the same compound?
Answer: 324 ± 105 ng·h/mL

Question: What about the Cmax ([1]; 3 mg/kg, oral (gavage)) of the same compound?
Answer: 131 ± 35 ng/mL

Question: And the Tmax ([1]; 3 mg/kg, oral (gavage))?
Answer: 0.42 h

Question: What about the half-life ([1]; 3 mg/kg, oral (gavage)) of the same compound?
Answer: 1.6 h

Question: What about the Kp [2] of the same compound?
Answer: 1.03 ± 0.02

Question: And the “Exploration time mean ± S.E.M, Familiar object” value [3]?
Answer: 9.9 ± 2.06 s

Question: And the “Exploration time mean ± S.E.M, Novel object” value [3]?
Answer: 17.58 ± 2.24 s

Question: What about the Inference [3] of the same compound?
Answer: Active

Question: What about the “Reversal of Scopolamine Induced amnesia - Effective dose range” value (Radial arm maze) of the same compound?
Answer: 0.03 mg/kg, p.o.
